Measured values taken from ChEMBL document CHEMBL6153018, “Macrocycles and macrocyclization in anticancer drug discovery: Important pieces of the puzzle” (Eur J Med Chem, 2024).
Values after ≈ are worked out from the molar mass of the structure shown. Square brackets hold non-standard residues; d marks the D form. Peptide text beside a SMILES is read from it. Lys(Me2) = CN(C)CCCC[C@H](N)C(=O)O; NMeT = CN[C@H](C(=O)O)[C@@H](C)O; NMeA = CN[C@@H](C)C(=O)O

How the values were obtained:
in vitro [1] = details: human, Caco-2
in vitro [2] = details: dog, MDCK
physchem = details: PBS buffer, pH 7.4

Papp A→B at 1 h (in vitro [1]) [×10⁻⁶ cm/s] | Papp A→B at 2 h (in vitro [2]) [×10⁻⁶ cm/s] | solubility (physchem) [µM] | SMILES
0.83 | – | – | C[C@@H]1NC(=O)[C@H](CCCCN)NC(=O)[C@H](Cc2ccccc2)NC(=O)[C@H](Cc2ccc(O)cc2)NC(=O)[C@H](CO)NC1=O (cyclo(ASYFK))
5.55 | – | – | COC[C@@H]1NC(=O)[C@H](CC(N)=O)NC(=O)[C@H](CCCCN(C)C)NC(=O)[C@H](Cc2ccccc2)NC(=O)[C@H](Cc2ccc(OC)cc2)NC1=O (cyclo([Lys(Me2)]NS(Me)Y(Me)F))
– | 0.593 | 880 (≈ 922 µg/mL) | CC(C)C[C@@H]1NC(=O)[C@H]([C@@H](C)O)N(C)C(=O)[C@H]2CCCN2C(=O)[C@H](CC(C)C)NC(=O)[C@H](C)N(C)C(=O)[C@H](CC(C)C)NC(=O)[C@H]([C@@H](C)O)N(C)C(=O)[C@H]2CCCN2C(=O)[C@H](CC(C)C)NC(=O)[C@H](C)N(C)C1=O (cyclo(L[NMeA]L[dP][NMeT]L[NMeA]L[dP][NMeT]))
